From ChEMBL document CHEMBL1152959, “Design, synthesis and dopamine D4 receptor binding activities of new N-heteroaromatic 5/6-ring Mannich bases” (Bioorg Med Chem, 2009)
pKi: −log10 of the molar value.

Experiments:
[1] = biological target: T1, D(4) dopamine receptor (Homo sapiens) (UniProt P21917); assay: Displacement of [3H]spiperone from human cloned dopamine D4.4 receptor expressed in CHO cells at 100 nM; type: cell-based
T1 sequence (whole entry): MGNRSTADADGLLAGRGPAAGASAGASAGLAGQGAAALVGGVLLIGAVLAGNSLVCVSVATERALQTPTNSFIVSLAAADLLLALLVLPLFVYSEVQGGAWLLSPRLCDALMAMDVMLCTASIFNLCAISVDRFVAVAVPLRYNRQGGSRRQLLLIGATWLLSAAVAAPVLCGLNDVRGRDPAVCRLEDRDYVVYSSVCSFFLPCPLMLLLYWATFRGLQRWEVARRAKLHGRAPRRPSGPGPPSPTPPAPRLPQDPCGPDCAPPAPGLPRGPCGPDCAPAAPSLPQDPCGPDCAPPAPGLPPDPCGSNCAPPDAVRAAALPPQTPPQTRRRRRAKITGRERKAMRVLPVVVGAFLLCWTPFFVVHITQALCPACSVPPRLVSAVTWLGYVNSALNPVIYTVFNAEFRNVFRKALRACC

[2] = biological target: D(1A) dopamine receptor (Sus scrofa) (UniProt P50130); assay: Displacement of [3H]SCH23390 from pig dopamine D1 receptor at 100 nM
D(2) dopamine receptor [3] = biological target: T2, D(2) dopamine receptor (Homo sapiens, UniProt P14416); assay: Displacement of [3H]spiperone from human cloned dopamine D2 long receptor expressed in CHO cells at 100 nM; type: cell-based
D(3) dopamine receptor = D(3) dopamine receptor (Homo sapiens, UniProt P35462); assay: biochemical
Description: Displacement of [3H]spiroperidol from human cloned dopamine D3 receptor expressed in CHO cells

D(2) dopamine receptor [4] = biological target: T2, D(2) dopamine receptor; assay: biochemical
Description: Displacement of [3H]SCH23390 from human cloned dopamine D2 long receptor expressed in CHO cells

D(1A) dopamine receptor = D(1A) dopamine receptor (Bos taurus, UniProt Q95136)
Description: Displacement of [3H]SCH23390 from bovine dopamine D1 receptor

D(2) dopamine receptor [5] = biological target: T2, D(2) dopamine receptor; assay: biochemical; remark: listed apart in the source
Description: Displacement of [3H]spiroperidol from human cloned dopamine D2 short receptor expressed in CHO cells

D(4) dopamine receptor = biological target: T3, D(4) dopamine receptor (Homo sapiens, UniProt P21917); assay: Displacement of [3H]spiroperidol from human cloned dopamine D4.4 receptor expressed in CHO cells; type: cell-based
T3 sequence (P21917 whole entry): T1 sequence (whole entry)

T2 sequence (P14416 whole entry): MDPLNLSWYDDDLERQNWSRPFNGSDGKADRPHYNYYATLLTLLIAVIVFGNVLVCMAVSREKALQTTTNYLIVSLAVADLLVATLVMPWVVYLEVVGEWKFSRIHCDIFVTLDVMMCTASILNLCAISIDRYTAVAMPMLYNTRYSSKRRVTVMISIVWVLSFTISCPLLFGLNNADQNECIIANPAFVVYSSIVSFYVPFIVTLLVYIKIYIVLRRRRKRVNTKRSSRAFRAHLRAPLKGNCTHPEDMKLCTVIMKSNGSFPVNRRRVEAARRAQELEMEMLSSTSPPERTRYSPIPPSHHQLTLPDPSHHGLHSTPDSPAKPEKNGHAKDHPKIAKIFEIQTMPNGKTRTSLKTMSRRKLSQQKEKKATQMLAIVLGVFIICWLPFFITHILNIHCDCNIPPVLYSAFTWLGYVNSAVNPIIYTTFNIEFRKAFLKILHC
Sequence of D(1A) dopamine receptor (Sus scrofa) (P50130 whole entry): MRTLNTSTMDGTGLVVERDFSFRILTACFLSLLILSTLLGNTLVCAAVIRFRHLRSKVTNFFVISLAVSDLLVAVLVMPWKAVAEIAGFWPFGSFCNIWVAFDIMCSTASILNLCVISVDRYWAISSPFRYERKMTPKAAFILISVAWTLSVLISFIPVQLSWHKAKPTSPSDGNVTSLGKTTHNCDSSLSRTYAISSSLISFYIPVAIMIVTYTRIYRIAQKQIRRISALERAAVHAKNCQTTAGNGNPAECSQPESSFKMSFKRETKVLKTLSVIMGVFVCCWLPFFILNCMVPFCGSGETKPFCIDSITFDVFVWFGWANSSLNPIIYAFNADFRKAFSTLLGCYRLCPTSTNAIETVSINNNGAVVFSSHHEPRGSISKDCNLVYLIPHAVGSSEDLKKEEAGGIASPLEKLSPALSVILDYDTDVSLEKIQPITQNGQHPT
Sequence of D(1A) dopamine receptor (Q95136 whole entry): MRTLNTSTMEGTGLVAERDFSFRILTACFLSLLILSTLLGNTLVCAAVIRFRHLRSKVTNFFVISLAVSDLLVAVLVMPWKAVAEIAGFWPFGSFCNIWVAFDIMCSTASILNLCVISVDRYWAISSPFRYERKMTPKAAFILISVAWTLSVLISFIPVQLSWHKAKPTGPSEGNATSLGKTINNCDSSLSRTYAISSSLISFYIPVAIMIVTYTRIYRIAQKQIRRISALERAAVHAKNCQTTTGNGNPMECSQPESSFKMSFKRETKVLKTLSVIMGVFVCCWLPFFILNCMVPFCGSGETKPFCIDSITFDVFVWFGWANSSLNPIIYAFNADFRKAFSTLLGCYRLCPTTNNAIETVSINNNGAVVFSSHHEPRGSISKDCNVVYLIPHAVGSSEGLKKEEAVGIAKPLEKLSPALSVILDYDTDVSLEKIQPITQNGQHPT
Sequence of D(3) dopamine receptor (P35462 whole entry): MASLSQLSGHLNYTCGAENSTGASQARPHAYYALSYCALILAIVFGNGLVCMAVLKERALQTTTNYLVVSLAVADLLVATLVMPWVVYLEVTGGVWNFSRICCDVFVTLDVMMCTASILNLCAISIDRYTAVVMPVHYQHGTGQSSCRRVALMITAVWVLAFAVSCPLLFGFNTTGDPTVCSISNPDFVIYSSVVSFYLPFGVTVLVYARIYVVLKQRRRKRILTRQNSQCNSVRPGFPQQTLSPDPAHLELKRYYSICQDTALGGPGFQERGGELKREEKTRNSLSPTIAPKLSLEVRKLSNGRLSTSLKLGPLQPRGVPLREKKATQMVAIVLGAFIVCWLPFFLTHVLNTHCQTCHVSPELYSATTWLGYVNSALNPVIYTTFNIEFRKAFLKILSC

Structure (SMILES) | Activity [1] [%] | Activity [2] [%] | Activity (D(2) dopamine receptor [3]) [%] | pKi (D(3) dopamine receptor) | pKi (D(2) dopamine receptor [4]) | pKi (D(1A) dopamine receptor) | pKi (D(2) dopamine receptor [5]) | pKi (D(4) dopamine receptor)
COc1cc2ncc(CN3CCN(c4ccccc4OC)CC3)n2c(OC)n1 | 20 | 0 | 0 | – | – | – | – | –
Cc1cc2ncc(CN3CCN(c4ccccn4)CC3)n2cn1 | 0 | 0 | 0 | – | – | – | – | –
Cc1cc2ncc(CN3CCN(c4ccccn4)CC3)n2c(C)n1 | 0 | 0 | 0 | – | – | – | – | –
Clc1nccc2c(CN3CCN(c4ccccc4)CC3)c[nH]c12 | – | – | – | 5.21 | 5.59 | 5.17 | 5.54 | 8.19
Cc1cc2nc(C)c(CN3CCN(c4ccc(Cl)c(Cl)c4)CC3)n2c(C)n1 | – | – | – | 5.89 | 5.48 | 5.68 | 5.26 | 7.68
Cc1cc2nc(C)c(CN3CCN(c4ccccn4)CC3)n2c(C)n1 | – | – | – | 6.19 | 4.77 | 4.66 | 5.00 | 6.92
Cc1cc2ncc(CN3CCN(c4ccccc4)CC3)n2cn1 | 20 | 0 | 0 | – | – | – | – | –
Cc1cc2nc(C)c(CN3CCN(c4ccccn4)CC3)n2cn1 | 40 | 0 | 0 | – | – | – | – | –
COc1ccc(N2CCN(Cc3cnc4cc(OC)nc(OC)n34)CC2)cc1 | 0 | 0 | 20 | – | – | – | – | –
Cc1cc2nc(C)c(CN3CCN(c4ccc(Cl)cc4)CC3)n2cn1 | 0 | 0 | 0 | – | – | – | – | –
COc1ccc(N2CCN(Cc3cnc4cc(C)nc(C)n34)CC2)cc1 | 0 | 0 | 0 | – | – | – | – | –
COc1ccccc1N1CCN(Cc2c(C)nc3cc(C)ncn23)CC1 | 20 | 0 | 0 | 4.17 | 4.40 | 4.23 | 4.28 | 7.41
Cc1cc2nc(C)c(CN3CCN(c4ccccc4)CC3)n2c(C)n1 | – | – | – | 5.38 | 5.07 | 4.96 | 4.96 | 7.15
CCOC(=O)c1nc2cc(C)nc(C)n2c1CN1CCN(c2ccccc2OC)CC1 | 0 | 0 | 0 | – | – | – | – | –
Cc1cc2ncc(CN3CCN(c4ccc(Cl)cc4)CC3)n2cn1 | 0 | 0 | 0 | – | – | – | – | –
Cc1cc2nc(C)c(CN3CCN(c4ccc(Cl)c(Cl)c4)CC3)n2cn1 | 20 | 0 | 0 | – | – | – | – | –
Cn1c(N2CCCC2)nc2c(CN3CCN(c4ccc(Cl)c(Cl)c4)CC3)c[nH]c2c1=O | – | – | – | 6.32 | 6.24 | 5.82 | 6.42 | 8.47
COc1ccc(N2CCN(Cc3c(C)nc4cc(C)nc(C)n34)CC2)cc1 | 0 | 0 | 0 | 8.07 | 6.59 | 5.18 | 6.80 | 6.02
COc1ccc(N2CCN(Cc3cnc4ccncn34)CC2)cc1 | 0 | 0 | 0 | – | – | – | – | –
